# Biological target: T1, Avi-tagged FL MALT-1 (Homo sapiens, UniProt Q9UDY8)
# T1 construct: Avi-tagged FL MALT-1 (Pharmaron, stored at −70° C.); Avi-tag; purchased Pharmaron
# T1 sequence (Q9UDY8 1-824): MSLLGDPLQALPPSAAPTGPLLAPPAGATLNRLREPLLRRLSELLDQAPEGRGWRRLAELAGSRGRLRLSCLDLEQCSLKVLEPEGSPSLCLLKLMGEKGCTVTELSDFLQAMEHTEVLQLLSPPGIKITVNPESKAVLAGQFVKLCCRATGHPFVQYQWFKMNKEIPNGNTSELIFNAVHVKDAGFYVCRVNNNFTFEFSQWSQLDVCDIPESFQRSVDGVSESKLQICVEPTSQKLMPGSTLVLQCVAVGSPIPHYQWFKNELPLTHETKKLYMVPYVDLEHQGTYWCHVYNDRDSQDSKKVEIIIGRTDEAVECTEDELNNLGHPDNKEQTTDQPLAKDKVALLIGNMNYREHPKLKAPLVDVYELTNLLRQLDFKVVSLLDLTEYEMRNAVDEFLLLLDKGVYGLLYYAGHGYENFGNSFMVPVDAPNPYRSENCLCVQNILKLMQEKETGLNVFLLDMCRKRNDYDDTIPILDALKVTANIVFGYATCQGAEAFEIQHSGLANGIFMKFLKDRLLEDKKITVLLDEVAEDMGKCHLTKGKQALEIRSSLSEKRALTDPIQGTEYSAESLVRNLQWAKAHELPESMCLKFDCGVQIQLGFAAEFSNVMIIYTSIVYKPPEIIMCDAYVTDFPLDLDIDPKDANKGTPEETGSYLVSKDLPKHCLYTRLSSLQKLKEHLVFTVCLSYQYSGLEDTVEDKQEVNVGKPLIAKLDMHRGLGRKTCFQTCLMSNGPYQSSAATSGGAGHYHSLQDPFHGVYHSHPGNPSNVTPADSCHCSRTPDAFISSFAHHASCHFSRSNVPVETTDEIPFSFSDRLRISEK
# Assay: MALT-1 Fluorogenic Peptide Cleavage Assay (MALT1 inhibition assay)
# Type: biochemical
# Settings: Ac-LRSR-AMC peptide substrate; 30 min pre-incubation, 90 min reaction at room temperature; fluorescence
# In short: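 Full-length Avi-tagged enzyme preincubated 30 min at room temperature with compound (2% DMSO final) in HEPES pH 6.89 buffer with sodium citrate, TCEP, EDTA and CHAPS. Ac-LRSR-AMC substrate added at Km or 10×Km (working stocks 50 or […] μM); fluorescence (ex 342/em 441 nm) after 90 min; IC50 from sigmoidal fit.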
row,SMILES,IC50 [nM]
1,"O=C(Nc1ccnc(C(F)(F)F)c1)c1snc(-c2ccc(C(F)F)cc2)c1C1CC1 [I-154, 4-cyclopropyl-3-(4-(difluoromethyl)phenyl)-N-(2-(trifluoromethyl)pyridin-4-yl)isothiazole-5-carboxamide]",≤ 400
2,"O=C(Nc1ccnc(C(F)(F)F)c1)c1snc(-c2ccncc2F)c1C1CC1 [I-155, 4-cyclopropyl-3-(3-fluoropyridin-4-yl)-N-[2-(trifluoromethyl)pyridin-4-yl]-1,2-thiazole-5-carboxamide]",≤ 400
3,"COc1cccc(-c2nsc(C(=O)Nc3ccnc(C(F)(F)F)c3)c2C2CC2)c1 [I-156, 4-cyclopropyl-3-(3-methoxyphenyl)-N-(2-(trifluoromethyl)pyridin-4-yl)isothiazole-5-carboxamide]",≤ 400
4,"Cn1cc2c(-c3nsc(C(=O)Nc4ccnc(C(F)(F)F)c4)c3C3CC3)cccc2n1 [I-157, 4-cyclopropyl-3-(2-methyl-2H-indazol-4-yl)-N-(2-(trifluoromethyl)pyridin-4-yl)isothiazole-5-carboxamide]",≤ 400
5,"N#Cc1cccc(-c2nsc(C(=O)Nc3ccnc(C(F)(F)F)c3)c2C2CC2)c1 [I-158, 3-(3-cyanophenyl)-4-cyclopropyl-N-[2-(trifluoromethyl)pyridin-4-yl]-1,2-thiazole-5-carboxamide]",≤ 400
6,"O=C(Nc1ccnc(C(F)(F)F)c1)c1snc(-c2cccc3scnc23)c1C1CC1 [I-159, 3-(1,3-benzothiazol-4-yl)-4-cyclopropyl-N-[2-(trifluoromethyl)pyridin-4-yl]-1,2-thiazole-5-carboxamide]",≤ 400
7,"Cc1ccccc1-c1nsc(C(=O)Nc2ccnc(C(F)(F)F)c2)c1C1CC1 [I-160, 4-cyclopropyl-3-(2-methylphenyl)-N-[2-(trifluoromethyl)pyridin-4-yl]-1,2-thiazole-5-carboxamide]",≤ 400
8,"COc1ccccc1-c1nsc(C(=O)Nc2ccnc(C(F)(F)F)c2)c1C1CC1 [I-161, 4-cyclopropyl-3-(2-methoxyphenyl)-N-[2-(trifluoromethyl)pyridin-4-yl]-1,2-thiazole-5-carboxamide]",≤ 400
9,"O=C(Nc1ccnc(C(F)(F)F)c1)c1snc(-c2cccc3ocnc23)c1C1CC1 [I-162, 3-(1,3-benzoxazol-4-yl)-4-cyclopropyl-N-[2-(trifluoromethyl)pyridin-4-yl]-1,2-thiazole-5-carboxamide]",≤ 400
10,"COc1ncccc1-c1nsc(C(=O)Nc2ccnc(C(F)(F)F)c2)c1C1CC1 [I-163, 4-cyclopropyl-3-(2-methoxypyridin-3-yl)-N-(2-(trifluoromethyl)pyridin-4-yl)isothiazole-5-carboxamide]",≤ 400
11,"O=C(Nc1ccnc(C(F)(F)F)c1)c1snc(-c2ccccc2C(F)(F)F)c1C1CC1 [I-164, 4-cyclopropyl-3-(2-(trifluoromethyl)phenyl)-N-(2-(trifluoromethyl)pyridin-4-yl)isothiazole-5-carboxamide]",≤ 400
12,"O=C(Nc1ccnc(C(F)(F)F)c1)c1snc(-c2cccnc2)c1C1CC1 [I-165, 4-cyclopropyl-3-(pyridin-3-yl)-N-(2-(trifluoromethyl)pyridin-4-yl)isothiazole-5-carboxamide]",≤ 400
13,"O=C(Nc1ccnc(C(F)(F)F)c1)c1snc(-c2ccc3[nH]ncc3c2)c1C1CC1 [I-166, 4-cyclopropyl-3-(1H-indazol-5-yl)-N-(2-(trifluoromethyl)pyridin-4-yl)isothiazole-5-carboxamide]",≤ 400
14,"Cc1cncc(-c2nsc(C(=O)Nc3ccnc(C(F)(F)F)c3)c2C2CC2)c1 [I-167, 4-cyclopropyl-3-(5-methylpyridin-3-yl)-N-(2-(trifluoromethyl)pyridin-4-yl)isothiazole-5-carboxamide]",400 to 1000
15,"Cn1ncc2cc(-c3nsc(C(=O)Nc4ccnc(C(F)(F)F)c4)c3C3CC3)ccc21 [I-168, 4-cyclopropyl-3-(1-methyl-1H-indazol-5-yl)-N-(2-(trifluoromethyl)pyridin-4-yl)isothiazole-5-carboxamide]",400 to 1000
16,"O=C(Nc1ccnc(C(F)(F)F)c1)c1snc(-c2ccc3cn[nH]c3c2)c1C1CC1 [I-169, 4-cyclopropyl-3-(1H-indazol-6-yl)-N-(2-(trifluoromethyl)pyridin-4-yl)isothiazole-5-carboxamide]",≤ 400
17,"COc1ccncc1-c1nsc(C(=O)Nc2ccnc(C(F)(F)F)c2)c1C1CC1 [I-170, 4-cyclopropyl-3-(4-methoxypyridin-3-yl)-N-(2-(trifluoromethyl)pyridin-4-yl)isothiazole-5-carboxamide]",≤ 400
18,"Cc1ncccc1-c1nsc(C(=O)Nc2ccnc(C(F)(F)F)c2)c1C1CC1 [I-171, 4-cyclopropyl-3-(2-methylpyridin-3-yl)-N-[2-(trifluoromethyl)pyridin-4-yl]-1,2-thiazole-5-carboxamide]",≤ 400
19,"O=C(Nc1ccnc(C(F)(F)F)c1)c1snc(-c2ccc(F)cc2)c1C1CC1 [I-172, 4-cyclopropyl-3-(4-fluorophenyl)-N-[2-(trifluoromethyl)pyridin-4-yl]-1,2-thiazole-5-carboxamide]",≤ 400
20,"Cc1ccncc1-c1nsc(C(=O)Nc2ccnc(C(F)(F)F)c2)c1C1CC1 [I-173, 4-cyclopropyl-3-(4-methylpyridin-3-yl)-N-(2-(trifluoromethyl)pyridin-4-yl)isothiazole-5-carboxamide]",≤ 400
21,"O=C(Nc1ccnc(C(F)(F)F)c1)c1snc(-c2cccc(C(F)F)c2)c1C1CC1 [I-174, 4-cyclopropyl-3-[3-(difluoromethyl)phenyl]-N-[2-(trifluoromethyl)pyridin-4-yl]-1,2-thiazole-5-carboxamide]",≤ 400
22,"Cn1ccc2c(-c3nsc(C(=O)Nc4ccnc(C(F)(F)F)c4)c3C3CC3)ccnc21 [I-175, 4-cyclopropyl-3-{1-methylpyrrolo[2,3-b]pyridin-4-yl}-N-[2-(trifluoromethyl)pyridin-4-yl]-1,2-thiazole-5-carboxamide]",≤ 400
23,"CNC(=O)c1ccc(-c2nsc(C(=O)Nc3ccnc(C(F)(F)F)c3)c2C2CC2)cc1 [I-176, 4-cyclopropyl-3-[4-(methylcarbamoyl)phenyl]-N-[2-(trifluoromethyl)pyridin-4-yl]-1,2-thiazole-5-carboxamide]",1000 to 2500
24,"O=C(Nc1ccnc(C(F)(F)F)c1)c1snc(-c2cncc3ccccc23)c1C1CC1 [I-177, 4-cyclopropyl-3-(isoquinolin-4-yl)-N-(2-(trifluoromethyl)pyridin-4-yl)isothiazole-5-carboxamide]",≤ 400
25,"Cc1cccc(-c2nsc(C(=O)Nc3ccnc(C(F)(F)F)c3)c2C2CC2)c1 [I-178, 4-cyclopropyl-3-(3-methylphenyl)-N-[2-(trifluoromethyl)pyridin-4-yl]-1,2-thiazole-5-carboxamide]",≤ 400
26,"N#Cc1cc(NC(=O)c2snc(-c3cccc4ncccc34)c2C2CC2)ccc1C(=O)N1CC(O)C1 [I-180, N-(3-cyano-4-(3-hydroxyazetidine-1-carbonyl)phenyl)-4-cyclopropyl-3-(quinolin-5-yl)isothiazole-5-carboxamide]",≤ 400
27,"Cn1cc(-c2nsc(C(=O)Nc3ccnc(C(F)(F)F)c3)c2C2CC2)cn1 [I-181, 4-cyclopropyl-3-(1-methyl-1H-pyrazol-4-yl)-N-(2-(trifluoromethyl)pyridin-4-yl)isothiazole-5-carboxamide]",1000 to 2500

# — patent US20260124222A1, “ISOTHIAZOLYLCARBOXAMIDE COMPOUNDS AND THEIR USE IN THERAPY” (HOTSPOT THERAPEUTICS, INC., priority 2022, published 2026)
